Measured values from patent US9174994B2, “Enhanced treatment regimens using mTor inhibitors” (INTELLIKINE LLC, priority 2011, dated 2015).
pIC50: −log10 of the molar value.

The molecules below were run on PC3 (assay: PC3 proliferation). Conditions: Homo sapiens, PC-3; Table 1.
Assay type: cell-based

First: CC(=O)Nc1nc2cc(-c3nn(C(C)C)c4ncnc(N)c34)ccc2o1 [Compound 2]
Second: CC(=O)Nc1noc2cc(-c3nn(C(C)C)c4ncnc(N)c34)ccc12 [Compound 11]
The pIC50 of the first is higher: > 6.00 for the first, < 5.00 for the second. The first is the more potent here.

Compared with `CC(C)n1nc(-c2ccc3nc(N)oc3c2)c2c(N)ncnc21` [Compound 4], `CC(C)n1nc(-c2ccc3c(N)noc3c2)c2c(N)ncnc21` [Compound 12] is lower in pIC50: > 5.00 for the first, < 5.00 for the second.

`Nc1nc2cc(-c3nn(C4CCOCC4)c4ncnc(N)c34)ccc2o1` [Compound 5] and `Nc1nc2cc(-c3cn(C4CCOCC4)c4ncnc(N)c34)ccc2o1` [Compound 9] cannot be ordered by pIC50: > 7.00 for the first, > 7.00 for the second.

`Nc1nc2cc(-c3nn(C4CCC(N5CCOCC5)CC4)c4ncnc(N)c34)ccc2o1` (stereo not shown) [Compound 6] and `CC(=O)N1CCC(n2nc(-c3ccc4oc(N)nc4c3)c3c(N)ncnc32)CC1` [Compound 7] cannot be ordered by pIC50: > 6.00 for the first, > 5.00 for the second.

Compared with `CC(C)n1cc(-c2ccc3oc(N)nc3c2)c2c(N)ncnc21` [Compound 8], `CC(C)n1nc(-c2ccc3onc(N)c3c2)c2c(N)ncnc21` [Compound 10] is lower in pIC50: > 7.00 for the first, < 5.00 for the second. The first is the more potent here.
